Values joined by “and” are separate entries in the source; they are usually repeats but may differ in a detail not shown here. Equal values may be shown once. Read-outs that look alike come from different tables or passages of the source.
Experiments:
[1] = Pharmacokinetics in ICR mice after intravenous and intragastric administration; type: in vivo; details: for MRT last: read-out: MRT(0-t); for MRT inf: read-out: MRT(0-∞); for Tmax: read-out: Tmax; for Vd: read-out: Vz
Description: Experimental Example 3 Determination of the Pharmacokinetics of the Mdm2 Inhibitors of the Present Invention in Mice
ICR mice were used as the test animals, and the concentrations of the drugs in plasma of mice at different time points after intravenous administration and intragastric administration of the representative compounds were measured by a LC/MS/MS method, so as to study the pharmacokinetic behavior of the compounds of the present invention in mice and evaluate the pharmacokinetic characteristics thereof.
Some compounds prepared in Examples 1-180 of the present invention.
The control drug HDM201 was prepared by the method disclosed in patent No. CN104203952A.
Healthy adult ICR mice, male, 6-9 weeks old, weighing 20-30 g, purchased from Shanghai Xipuer-Bikai Laboratory Animal Co., Ltd., Animal Production License No.: SCXK (HU) 2013-0016
3.2.3 Preparation of Test Drugs
Intragastric or intravenous administration: an appropriate amount of sample was weighed, dissolved in 5% DMSO+40% PEG400+55% (10% HP-β-CD in Saline) to prepare a 0.5 mg/ml solution for intragastric or intravenous administration.
3.2.4 Administration of Test Drugs
Intravenous administration: for each test compound, 3 male ICR mice were administered intravenously at a dose of 2 mg/kg and an administration volume of […] after fasting overnight.
Intragastric administration: for each test compound, 3 male ICR mice were administered intragastrically at a dose of 5 mg/kg and an administration volume of […] after fasting overnight.
3.3 Experimental Operation
The collected plasma was stored at −80° C. before analysis. The plasma sample was analyzed by LC-MS/MS, and the sample was pretreated by protein precipitation method. The linear range of sample analysis was 1 to 2000 ng/ml. The lowest quantification limit was 1 ng/mL. WinNonlin (Pharsight, USA) was used to calculate the following pharmacokinetic parameters: area under the curve AUC(0-t), area under the curve AUC(0-∞), half-life t1/2, retention time MRT(0-∞), blood drug concentration Cmax, time taken to reach the peak blood drug concentration Tmax, bioavailability F, apparent volume of distribution Vz, and clearance rate CL.

MDM2 = target: T1, MDM2 (Homo sapiens, UniProt Q00987); assay: Inhibition test of MDM2-P53 (GST-MDM2, Biotin-P53, Anti-GST-Tb, SA-XL665); type: binding
T1 construct: made in house
T1 sequence (Q00987 whole entry): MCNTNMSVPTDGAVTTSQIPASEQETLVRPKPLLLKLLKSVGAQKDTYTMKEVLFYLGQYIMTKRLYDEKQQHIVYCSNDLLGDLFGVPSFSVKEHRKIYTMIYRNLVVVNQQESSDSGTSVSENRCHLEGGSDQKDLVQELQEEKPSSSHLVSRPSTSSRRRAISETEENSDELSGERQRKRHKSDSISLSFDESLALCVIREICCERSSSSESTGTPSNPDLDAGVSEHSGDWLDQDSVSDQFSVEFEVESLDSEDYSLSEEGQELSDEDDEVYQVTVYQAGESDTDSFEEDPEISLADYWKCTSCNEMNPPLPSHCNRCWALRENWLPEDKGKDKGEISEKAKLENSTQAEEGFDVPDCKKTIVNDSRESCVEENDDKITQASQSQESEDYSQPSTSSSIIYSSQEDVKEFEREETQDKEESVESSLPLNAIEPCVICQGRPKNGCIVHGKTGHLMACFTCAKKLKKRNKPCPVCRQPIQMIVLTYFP
Method in brief: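 Compounds, serially diluted 5-fold (twelve concentrations), were shaken for 90 min at 25° C with a mix of GST-MDM2 (4 nM final), Biotin-P53, anti-GST-Tb and SA-XL665. Buffer: 1×PBS, 0.1% BSA, 5 mM DTT, 1 mM AEBSF; signal read on a microplate reader.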

[2] = tested on: human osteosarcoma cell line SJSA-1; assay: Inhibition of proliferation of human osteosarcoma cell line SJSA-1 (DAPI staining, In Cell Analyzer); details: Homo sapiens, SJSA-1, 72 h, read-out: IC50 (nM), inhibitory activity on proliferation of human osteosarcoma cell line SJSA-1, SJSA-1, incubated 72 h
[3] = IV 2 mg/kg, ICR mice, individual animal, 2 mg/kg
[4] = PO 5 mg/kg, ICR mice, individual animal, 5 mg/kg
[5] = male, ICR, mouse, plasma, iv, 2 mg/kg, IV 2 mg/kg, ICR mice, Mean
[6] = male, ICR, mouse, plasma, iv, 2 mg/kg, IV 2 mg/kg, ICR mice, individual animal
[7] = male, ICR, mouse, plasma, po, 5 mg/kg, PO 5 mg/kg, ICR mice, Mean
[8] = male, ICR, mouse, plasma, po, 5 mg/kg, PO 5 mg/kg, ICR mice, individual animal

For `COc1ncc(-c2nc3c(n2C(C)C)[C@@]2(C(=O)Nc4cc(Cl)ccc42)N(c2cccc(Cl)c2)C3=O)c(OC)n1` [Example S-1, (S)-6-chloro-5′-(3-chlorophenyl)-2′-(2,4-dimethoxypyrimidin-5-yl)-3′-isopropyl-3′H-spiro[dihydroindole-3,4′-pyrrolo[3,4-d]imidazole]-2,6′(5′H)-dione], the “AUC(0-t)” value [1, 3] was 843.53 ng·h/mL and 532.69 ng·h/mL, the “AUC(0-∞)” value [1, 3] was 855.63 ng·h/mL and 548.82 ng·h/mL and the CL [1, 3] was 38.9578 mL/min/kg and 60.7363 mL/min/kg. For the same molecule, the Cmax [1, 3] was 336.17 ng/mL and 307.80 ng/mL, the “MRT(0-t)” value [1, 3] was 1.34 h and the “MRT(0-∞)” value [1, 3] was 1.43 h and 1.52 h. The Vz [1, 3] was 3.30882 L/kg and 6.38069 L/kg, the t1/2 [1, 3] was 0.98 h and 1.21 h and the “F*” value ([1]; PO 5 mg/kg vs IV 2 mg/kg, ICR mice) was 76.30%. For the same molecule, the “AUC(0-t)” value [1, 4] was 1822.90 ng·h/mL and 1944.41 ng·h/mL and 241.17 ng·h/mL, the “AUC(0-∞)” value [1, 4] was 1834.25 ng·h/mL and 2088.41 ng·h/mL and 330.15 ng·h/mL and the Cmax [1, 4] was 629.23 ng/mL and 471.21 ng/mL and 92.81 ng/mL. The “MRT(0-t)” value [1, 4] was 2.60 h and 1.79 h, the “MRT(0-∞)” value [1, 4] was 3.17 h and 3.13 h and the t1/2 [1, 4] was 1.98 h and 1.92 h. For the same molecule, the AUC(0-inf) [1, 5] was 714 ng·h/mL, the clearance [1, 5] was 48.3 mL/min/kg and the AUC(0-t) ([1]; male, ICR, mouse, plasma, iv, 2 mg/kg, IV 2 mg/kg, ICR mice, Mean, read-out: AUC(0-t)) was 700 ng·h/mL. The Cmax ([1]; male, ICR, mouse, plasma, iv, 2 mg/kg, IV 2 mg/kg, ICR mice, Mean, read-out: Cmax) was 325 ng/mL, the MRT last [1, 5] was 1.33 h and the MRT inf [1, 5] was 1.45 h. The Tmax [1, 5] was 0.083 h, the Vd [1, 5] was 4.54 L/kg and the half-life ([1]; male, ICR, mouse, plasma, iv, 2 mg/kg, IV 2 mg/kg, ICR mice, Mean, read-out: t1/2 (converted)) was 1.07 h. It also gave an AUC(0-inf) [1, 6] of 737 ng·h/mL, a clearance [1, 6] of 45.2 mL/min/kg and an AUC(0-t) ([1]; male, ICR, mouse, plasma, iv, 2 mg/kg, IV 2 mg/kg, ICR mice, individual animal, read-out: AUC(0-t)) of 725 ng·h/mL. It also gave a Cmax ([1]; male, ICR, mouse, plasma, iv, 2 mg/kg, IV 2 mg/kg, ICR mice, individual animal, read-out: Cmax) of 330 ng/mL, an MRT last [1, 6] of 1.31 h and an MRT inf [1, 6] of 1.41 h. It also gave a Tmax [1, 6] of 0.08 h, a Vd [1, 6] of 3.92 L/kg and a half-life ([1]; male, ICR, mouse, plasma, iv, 2 mg/kg, IV 2 mg/kg, ICR mice, individual animal, read-out: t1/2 (converted)) of 1 h. For the same molecule, the AUC(0-inf) [1, 7] was 1420 ng·h/mL, the AUC(0-t) ([1]; male, ICR, mouse, plasma, po, 5 mg/kg, PO 5 mg/kg, ICR mice, Mean, read-out: AUC(0-t)) was 1340 ng·h/mL and the Cmax ([1]; male, ICR, mouse, plasma, po, 5 mg/kg, PO 5 mg/kg, ICR mice, Mean, read-out: Cmax) was 398 ng/mL. It also gave an MRT last [1, 7] of 2.11 h, an MRT inf [1, 7] of 2.76 h and a Tmax [1, 7] of 1 h. The half-life ([1]; male, ICR, mouse, plasma, po, 5 mg/kg, PO 5 mg/kg, ICR mice, Mean, read-out: t1/2 (converted)) was 1.64 h, the MRT last [1, 8] was 1.94 h and the MRT inf [1, 8] was 1.99 h. The Tmax [1, 8] was 1 h, the half-life ([1]; male, ICR, mouse, plasma, po, 5 mg/kg, PO 5 mg/kg, ICR mice, individual animal, read-out: t1/2 (converted)) was 1.03 h and the AUC(0-t) ([1]; male, ICR, mouse, plasma, po, 5 mg/kg, oral intragastric administration 5 mg/kg, read-out: AUC0-t) was 1340 ng·h/mL. The half-life ([1]; male, ICR, mouse, plasma, po, 5 mg/kg, oral intragastric administration 5 mg/kg, read-out: half-life (converted)) was 1.64 h, the IC50 (MDM2) was 2.21 nM and the IC50 [2] was 39.6 nM.
